What follows are compounds tested on compound 48/80-induced lethality (assay: Protection of rats from compound 48/80-induced lethality). Conditions: Rattus norvegicus; test compound subcutaneously or orally (route not specified per compound); compound 48/80 0.5 mg/kg i.v. one hour after treatment; survival after 4 hours; protection of 50% of animals; read-out: compound 48/80 lethality test in rate-ED50.
Type: in vivo, rat (male, inbred Wistar strain)
Procedure: Protection of rats from compound 48/80-induced lethality
The protection from compound 48/80-induced lethal circulatory collapse appears to be a simple way of evaluating quantitatively the antihistaminic activity of test compounds. Male rats of an inbred Wistar strain, weighting 240-260 g were used in the experiment. After overnight starvation the rats were transferred to conditioned laboratories (temp. =21±1° C., relative humidity =65±5%).
The rats were treated subcutaneously or orally with a test compound or with the solvent (NaCl solution, 0.9%). One hour after treatment there was injected intravenously compound 48/80, freshly dissolved in water, at a dose of 0.5 mg/kg (0.2 ml/100 g of body weight). In control experiments, wherein 250 solvent-treated animals were injected with the standard dose of compound 48/80, not more than 2.8% of the animals survived after 4 hours. Survival after 4 hours is therefore considered to be a safe criterion of a protective effect of drug administration. Said ED50 -values are the values in mg/kg body weight at which the tested compounds protect 50% of the tested animals against compound 48/80-inducedlethality.
`Cc1ccc(Cn2c(NC3CCN(C/C=C/c4ccccc4)CC3)nc3cccnc32)o1` [Compound 6] showed an ED50 of 0.04 mg/kg. `Cc1ccc(Cn2c(NC3CCN(CCn4c(=O)[nH]c5ccccc54)CC3)nc3cccnc32)o1` [Compound 9] was tested, and the ED50 was 0.02 mg/kg. With `Cc1coc(Cn2c(NC3CCN(CCn4c(=O)[nH]c5ccccc54)CC3)nc3cccnc32)c1` [Compound 63] the ED50 was 0.04 mg/kg. `COc1ccc(CCN2CCC(Nc3nc4ccccc4n3Cc3ccc(C)o3)CC2)cc1` [Compound 13] gave an ED50 of 0.04 mg/kg. For `CCc1ccc(Cn2c(NC3CCN(C)CC3)nc3cccnc32)o1` [Compound 29], the ED50 was 0.04 mg/kg. Compound `CCn1nnn(CCN2CCC(Nc3nc4ccccc4n3Cc3ccc(C)o3)CC2)c1=O.O=C(O)C(=O)O.O=C(O)C(=O)O` [Compound 22, 1-ethyl-1,4-dihydro-4-[2-[4-[[1-[(5-methyl-2-furanyl)methyl]-1H-benzimidazol-2-yl]-amino]-1-piperidinyl]ethyl]-5H-tetrazol-5-one ethanedioate(1:2)] has an ED50 of 0.04 mg/kg. Compound `Cc1occc1Cn1c(NC2CCN(C)CC2)nc2cccnc21` [Compound 36] has an ED50 of 0.04 mg/kg. Work on `Cc1ccc(Cn2c(NC3CCN(CCCC(=O)c4ccc(F)cc4)CC3)nc3cccnc32)o1` [Compound 46] yielded an ED50 of 0.04 mg/kg. For `Cc1ccc(Cn2c(NC3CCN(CCCOc4ccccc4)CC3)nc3cccnc32)o1` [Compound 8], the ED50 was 0.04 mg/kg. For `Cc1occc1Cn1c(NC2CCN(CCn3c(=O)[nH]c4ccccc43)CC2)nc2cccnc21` [Compound 53], the ED50 was 0.04 mg/kg. Compound `Cc1ccc(Cn2c(NC3CCN(CCc4cccs4)CC3)nc3cccnc32)o1` [Compound 15] has an ED50 of 0.04 mg/kg. Work on `Cc1ccc(Cn2c(NC3CCN(CC(O)COc4ccccc4)CC3)nc3cccnc32)o1` (stereo not shown) [Compound 26] yielded an ED50 of 0.04 mg/kg. Compound `Cc1ccoc1Cn1c(NC2CCN(C)CC2)nc2cccnc21` [Compound 56] has an ED50 of 0.04 mg/kg. For `CC(=O)CCCN1CCC(Nc2nc3cccnc3n2Cc2ccc(C)o2)CC1` [Compound 18], the ED50 was 0.01 mg/kg. `CCN1CCC(Nc2nc3cccnc3n2Cc2ccc(C)o2)CC1.O=C(O)/C=C/C(=O)O.O=C(O)/C=C/C(=O)O` [Compound 4, N-(1-ethyl-4-piperidinyl)-3-[(5-methyl-2-furanyl)methyl]-3H-imidazo[4,5-b]-pyridin-2-amine (E)-2-butenedioate(1:2)] gave an ED50 of 0.0025 mg/kg. `CCOCCN1CCC(Nc2nc3cccnc3n2Cc2ccc(C)o2)CC1` [Compound 7] was tested, and the ED50 was 0.02 mg/kg. `CCCCCCN1CCC(Nc2nc3cccnc3n2Cc2ccc(C)o2)CC1` [Compound 39] was tested, and the ED50 was 0.04 mg/kg. For `CC(=O)CCN1CCC(Nc2nc3cccnc3n2Cc2ccc(C)o2)CC1` [Compound 41], the ED50 was 0.01 mg/kg. For `CCN1CCC(Nc2nc3ccccc3n2Cc2ccc(C)o2)CC1` [Compound 11], the ED50 was 0.01 mg/kg. For `Cc1ccc(Cn2c(NC3CCN(CCCn4c(=O)[nH]c5ccccc54)CC3)nc3cccnc32)o1` [Compound 38], the ED50 was 0.02 mg/kg. In the case of `CNC(=O)NCCN1CCC(Nc2nc3ccccc3n2Cc2ccc(C)o2)CC1` [Compound 40, N-methyl-N'-[2-[4-[[1-[(5-methyl-2-furanyl)methyl]-1H-benzimidazol-2-yl]amino]-1-piperidinyl]ethyl]urea], the ED50 is reported as 0.02 mg/kg. Work on `Cc1coc(Cn2c(NC3CCN(C)CC3)nc3cccnc32)c1` [Compound 62] yielded an ED50 of 0.005 mg/kg. `CCCCN1CCC(Nc2nc3cccnc3n2Cc2ccc(C)o2)CC1` [Compound 37] showed an ED50 of 0.02 mg/kg. With `C=CCN1CCC(Nc2nc3cccnc3n2Cc2ccc(C)o2)CC1.O=C(O)/C=C/C(=O)O.O=C(O)/C=C/C(=O)O` [Compound 5, 3-[(5-methyl-2-furanyl)methyl]-N-[1-(2-propenyl)-4-piperidinyl]-3H-imidazo-[4,5-b]pyridin-2-amine (E)-2-butenedioate(1:2)] the ED50 was 0.005 mg/kg. `CCn1nnn(CCN2CCC(Nc3nc4cccnc4n3Cc3ccc(C)o3)CC2)c1=O` [Compound 10] gave an ED50 of 0.04 mg/kg. `COc1ccc(CCN2CCC(Nc3nc4cccnc4n3Cc3cc(C)co3)CC2)cc1` [Compound 64] was tested, and the ED50 was 0.04 mg/kg. `Cc1ccc(Cn2c(NC3CCN(C)CC3)nc3cccnc32)o1` [Compound 1] was tested, and the ED50 was 0.005 mg/kg. `CCCCCN1CCC(Nc2nc3cccnc3n2Cc2ccc(C)o2)CC1` [Compound 42] was tested, and the ED50 was 0.04 mg/kg.
